# PubChem BioAssay (NCI)
#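 In this assay, cells in 96-well plates receive the compound at five concentrations for 48 hours. Endpoints are linearly interpolated between the surrounding concentrations. TGI marks complete inhibition of growth.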
# Key:
# Test in all cases: growth of human tumour cells (NCI), 48 h
# MDA-N = tested on: MDA-N
# OVCAR-5 ovarian = tested on: OVCAR-5 ovarian
# M14 melanoma = tested on: M14 melanoma
# MDA-MB-231 breast = tested on: MDA-MB-231 breast
# SW-620 colon = tested on: SW-620 colon
# SNB-75 CNS = tested on: SNB-75 CNS
# SK-OV-3 ovarian = tested on: SK-OV-3 ovarian
# SK-MEL-2 melanoma = tested on: SK-MEL-2 melanoma
# SF-295 CNS = tested on: SF-295 CNS
# SK-MEL-5 melanoma = tested on: SK-MEL-5 melanoma
# UACC-257 melanoma = tested on: UACC-257 melanoma
# MALME-3M melanoma = tested on: MALME-3M melanoma
# A498 renal = tested on: A498 renal
# HCT-116 colon = tested on: HCT-116 colon
# HL-60(TB) leukemia = tested on: HL-60(TB) leukemia
# HS 578T breast = tested on: HS 578T breast
# CAKI-1 renal = tested on: CAKI-1 renal
# RPMI-8226 leukemia = tested on: RPMI-8226 leukemia
# MCF7 breast = tested on: MCF7 breast
# SK-MEL-28 melanoma = tested on: SK-MEL-28 melanoma
# RXF 393 renal = tested on: RXF 393 renal
# A549 NSCLC = tested on: A549 NSCLC
# OVCAR-3 ovarian = tested on: OVCAR-3 ovarian
# OVCAR-4 ovarian = tested on: OVCAR-4 ovarian
# U251 CNS = tested on: U251 CNS
# MOLT-4 leukemia = tested on: MOLT-4 leukemia
# T-47D breast = tested on: T-47D breast
# HCC-2998 colon = tested on: HCC-2998 colon
# DU-145 prostate = tested on: DU-145 prostate
# TK-10 renal = tested on: TK-10 renal
# 786-0 renal = tested on: 786-0 renal
# HOP-62 NSCLC = tested on: HOP-62 NSCLC
# K-562 leukemia = tested on: K-562 leukemia
# LOX IMVI melanoma = tested on: LOX IMVI melanoma
# HOP-92 NSCLC = tested on: HOP-92 NSCLC
# CCRF-CEM leukemia = tested on: CCRF-CEM leukemia
# MDA-MB-435 = tested on: MDA-MB-435
# NCI/ADR-RES ovarian = tested on: NCI/ADR-RES ovarian
# KM12 colon = tested on: KM12 colon
# NCI-H23 lung = tested on: NCI-H23 lung
# PC-3 prostate = tested on: PC-3 prostate
# SR leukemia = tested on: SR leukemia
# UACC-62 melanoma = tested on: UACC-62 melanoma
# SF-268 CNS = tested on: SF-268 CNS
# COLO 205 colon = tested on: COLO 205 colon
# NCI-H522 lung = tested on: NCI-H522 lung
# HT29 colon = tested on: HT29 colon
# IGROV1 ovarian = tested on: IGROV1 ovarian
# ACHN renal = tested on: ACHN renal
# SF-539 CNS = tested on: SF-539 CNS
# SN12C renal = tested on: SN12C renal
# OVCAR-8 ovarian = tested on: OVCAR-8 ovarian
# UO-31 renal = tested on: UO-31 renal
# NCI-H460 lung = tested on: NCI-H460 lung
# SNB-19 CNS = tested on: SNB-19 CNS
# NCI-H226 lung = tested on: NCI-H226 lung
# HCT-15 colon = tested on: HCT-15 colon
# EKVX NSCLC = tested on: EKVX NSCLC
# BT-549 breast = tested on: BT-549 breast
smiles,measurement,setting,value
COc1ccc2c(CCN)c(C(=O)O)[nH]c2c1,TGI,MDA-N,> 100 µM
same,TGI,OVCAR-5 ovarian,> 100 µM
same,TGI,M14 melanoma,> 100 µM
same,TGI,MDA-MB-231 breast,> 100 µM
same,TGI,SW-620 colon,> 100 µM
same,TGI,SNB-75 CNS,> 100 µM
same,TGI,SK-OV-3 ovarian,> 100 µM
same,TGI,SK-MEL-2 melanoma,> 100 µM
same,TGI,SF-295 CNS,> 100 µM
same,TGI,SK-MEL-5 melanoma,> 100 µM
same,TGI,UACC-257 melanoma,> 100 µM
same,TGI,MALME-3M melanoma,> 100 µM
same,TGI,A498 renal,> 100 µM
same,TGI,HCT-116 colon,> 100 µM
same,TGI,HL-60(TB) leukemia,> 100 µM
same,TGI,HS 578T breast,> 100 µM
same,TGI,CAKI-1 renal,> 100 µM
same,TGI,RPMI-8226 leukemia,> 100 µM
same,TGI,MCF7 breast,> 100 µM
same,TGI,SK-MEL-28 melanoma,> 100 µM
same,TGI,RXF 393 renal,> 100 µM
same,TGI,A549 NSCLC,> 100 µM
same,TGI,OVCAR-3 ovarian,> 100 µM
same,TGI,OVCAR-4 ovarian,> 100 µM
same,TGI,U251 CNS,> 100 µM
same,TGI,MOLT-4 leukemia,> 100 µM
same,TGI,T-47D breast,> 100 µM
same,TGI,HCC-2998 colon,> 100 µM
same,TGI,DU-145 prostate,> 100 µM
same,TGI,TK-10 renal,> 100 µM
same,TGI,786-0 renal,> 100 µM
same,TGI,HOP-62 NSCLC,> 100 µM
same,TGI,K-562 leukemia,> 100 µM
same,TGI,LOX IMVI melanoma,> 100 µM
same,TGI,HOP-92 NSCLC,> 100 µM
same,TGI,CCRF-CEM leukemia,> 100 µM
same,TGI,MDA-MB-435,> 100 µM
same,TGI,NCI/ADR-RES ovarian,> 100 µM
same,TGI,KM12 colon,> 100 µM
same,TGI,NCI-H23 lung,> 100 µM
same,TGI,PC-3 prostate,> 100 µM
same,TGI,SR leukemia,> 43.7 µM
same,TGI,UACC-62 melanoma,> 100 µM
same,TGI,SF-268 CNS,> 100 µM
same,TGI,COLO 205 colon,> 100 µM
same,TGI,NCI-H522 lung,> 100 µM
same,TGI,HT29 colon,> 100 µM
same,TGI,IGROV1 ovarian,> 100 µM
same,TGI,ACHN renal,> 100 µM
same,TGI,SF-539 CNS,> 100 µM
same,TGI,SN12C renal,> 100 µM
same,TGI,OVCAR-8 ovarian,> 100 µM
same,TGI,UO-31 renal,> 100 µM
same,TGI,NCI-H460 lung,> 100 µM
same,TGI,SNB-19 CNS,> 100 µM
same,TGI,NCI-H226 lung,> 100 µM
same,TGI,HCT-15 colon,> 100 µM
same,TGI,EKVX NSCLC,> 100 µM
same,TGI,BT-549 breast,> 100 µM
O=C(CC(c1ccccc1)c1c(O)c2ccccc2oc1=O)c1ccccc1 (stereo not drawn),TGI,MDA-N,> 100 µM
same,TGI,OVCAR-5 ovarian,> 100 µM
same,TGI,M14 melanoma,> 100 µM
same,TGI,MDA-MB-231 breast,> 100 µM
same,TGI,SW-620 colon,> 100 µM
same,TGI,SNB-75 CNS,> 100 µM
same,TGI,SK-OV-3 ovarian,> 100 µM
same,TGI,SK-MEL-2 melanoma,> 100 µM
same,TGI,SF-295 CNS,> 100 µM
same,TGI,SK-MEL-5 melanoma,> 100 µM
same,TGI,UACC-257 melanoma,> 100 µM
same,TGI,MALME-3M melanoma,> 100 µM
same,TGI,A498 renal,98.6 µM
same,TGI,HCT-116 colon,> 100 µM
same,TGI,HL-60(TB) leukemia,> 100 µM
same,TGI,HS 578T breast,> 100 µM
same,TGI,CAKI-1 renal,46.4 µM
same,TGI,RPMI-8226 leukemia,> 100 µM
same,TGI,MCF7 breast,> 100 µM
same,TGI,SK-MEL-28 melanoma,> 100 µM
same,TGI,RXF 393 renal,> 100 µM
same,TGI,A549 NSCLC,> 100 µM
same,TGI,OVCAR-3 ovarian,> 81.9 µM
same,TGI,OVCAR-4 ovarian,> 100 µM
same,TGI,U251 CNS,> 100 µM
same,TGI,MOLT-4 leukemia,> 100 µM
same,TGI,T-47D breast,> 100 µM
same,TGI,HCC-2998 colon,> 100 µM
same,TGI,DU-145 prostate,> 100 µM
same,TGI,TK-10 renal,> 100 µM
same,TGI,786-0 renal,> 100 µM
same,TGI,HOP-62 NSCLC,> 100 µM
same,TGI,K-562 leukemia,> 100 µM
same,TGI,LOX IMVI melanoma,> 100 µM
same,TGI,HOP-92 NSCLC,> 86.5 µM
same,TGI,CCRF-CEM leukemia,> 100 µM
same,TGI,MDA-MB-435,> 100 µM
same,TGI,NCI/ADR-RES ovarian,> 100 µM
same,TGI,KM12 colon,> 100 µM
same,TGI,NCI-H23 lung,> 100 µM
same,TGI,PC-3 prostate,> 100 µM
same,TGI,SR leukemia,> 100 µM
same,TGI,UACC-62 melanoma,> 100 µM
same,TGI,SF-268 CNS,> 100 µM
same,TGI,COLO 205 colon,> 100 µM
same,TGI,NCI-H522 lung,> 100 µM
same,TGI,HT29 colon,> 100 µM
same,TGI,IGROV1 ovarian,> 100 µM
same,TGI,ACHN renal,> 100 µM
same,TGI,SF-539 CNS,> 100 µM
same,TGI,SN12C renal,> 100 µM
same,TGI,OVCAR-8 ovarian,> 100 µM
same,TGI,UO-31 renal,> 100 µM
same,TGI,NCI-H460 lung,> 100 µM
same,TGI,SNB-19 CNS,> 100 µM
same,TGI,NCI-H226 lung,> 100 µM
same,TGI,HCT-15 colon,> 100 µM
same,TGI,EKVX NSCLC,> 100 µM
same,TGI,BT-549 breast,> 100 µM
